From the OligoGym collection come the findings set out here.

These antisense oligonucleotides have a phosphorothioate backbone; sugars and methylation of C are not fully specified.
Note: test concentration or dose not given here.

The first series addresses GNAI3. The conditions noted are these: ASO.
GAGTTGGAATGTAGTTAG displayed a remaining target (mRNA or protein) (fraction of control) of 0.56.

The next series addresses MAP2K7. The note with it: ASO.
For CTGGCTCAAGGAACGCCGTT, the remaining target (mRNA or protein) (fraction of control) was at least 1.

In the case of TGTCATCTTGCCCAGAATGC, the remaining target (mRNA or protein) (fraction of control) was found to be 0.68. Consider GGTTGGCCGCCGGCCAAAGC, for which the remaining target (mRNA or protein) (fraction of control) is at least 1. Same read-out and setting: in the case of GGGAGGACGCCGCCATCTTC it was 0.34; in that of CATCTTCCCCGCCGCCACCG, 0.68.

Sequence GGAGCGCCGCATTTGCTTAA had a remaining target (mRNA or protein) (fraction of control) of 0.75. Still for that read-out and setting: to CCGCCATCTTCCCCGCCGCC belongs 0.9; to CGCGCACCGCCCGGCCGCCC, 0.46. Same read-out and setting: in the case of AGACAAACACCTCGTGCCGA it was 0.88; in that of TCCAGGGAGGACGCCGCCAT, 0.64; in that of ACTCAGGTCTTCGCCATGAC, 0.76. Regarding AGGCGGCACAGCCGGCGCTC, the remaining target (mRNA or protein) (fraction of control) came to 0.95. In the case of CCCAGGCTCCATACGTCGGC, the remaining target (mRNA or protein) (fraction of control) came to 0.74.

In turn, TTCTCCTGCTTCAGCTTTGC returned a remaining target (mRNA or protein) (fraction of control) of 0.69. On the same count and under the same terms, in the case of AGGACGCCGCCATCTTCCCC it was 0.7; in that of CAGGGAGGACGCCGCCATCT, at least 1. Still for that read-out and setting: to ACTGTCCTGTTGCCAGCTCC belongs 0.58; to TTCCGGAAGCGCATCTTCCA, 0.86; to TAGCCCGTCTGCTTCATGAT, 0.76. On the same count and under the same terms, to CACCTCCAGCGTCTCGTAGC belongs 0.45; to GCCGTTAGTCCGCGGTGACT, 0.72. For CCCCGAGAAGCCCATGTGTC, the remaining target (mRNA or protein) (fraction of control) came to 0.69. Still for that read-out and setting: in the case of TGAACGTCCCAAAGCACTGC it was 0.86. Still for that read-out and setting: in the case of GAGTCCACCAGGCGGCCGCT it was 0.66; in that of CGCCGCCATCTTCCCCGCCG, 0.99. Same read-out and setting: in the case of CGTCAGTCCGGCAGACAAAC it was 0.91; in that of ATGGCGATGAAGACGTCCGT, 0.84; in that of TCATAGTCCGGCTTGGTGGG, at least 1. Consider GGAGGGCTTGACGTCGCGGT, for which the remaining target (mRNA or protein) (fraction of control) came out at 0.96. On the same count and under the same terms, in the case of CTGAGGATGGCGAGCGGCTG it was at least 1. Still for that read-out and setting: in the case of GGTAGTACAGCGCCTTCACA it was 0.82; in that of GACGCCGCCATCTTCCCCGC, 0.7; in that of GCGGGACAGCTTCTGTTCCA, at least 1. The same measure, in the same setting: in the case of CTTTAGTAAGGCAGTCTTTG it was 0.7; in that of AGTCCGCGGTGACTCAGGTC, 0.87. With GCACCACATCCAGGTCCATG, the remaining target (mRNA or protein) (fraction of control) is 0.58. The same measure, in the same setting: to AGAGCTTGATCTGGCCCCGC belongs 0.84; to TCCAGGTTGAGGTCGATCCT, 0.68. GCCATCTTCCCCGCCGCCAC registered a remaining target (mRNA or protein) (fraction of control) of 0.75. The same measure, in the same setting: to TCTTCCCCGCCGCCACCGCC belongs 0.77.

The next series addresses GNAI1. The conditions noted are these: ASO.
For TTCAACCTCCCCATAGCC, the remaining target (mRNA or protein) (fraction of control) stood at 0.81. AGTCTATCTTCAACCTCC gave a remaining target (mRNA or protein) (fraction of control) of 0.92. The same measure, in the same setting: in the case of TGATCCAAAGGCAGGTGT it was 0.27.

The sequence TTAAGAACATTTCAATAA yielded a remaining target (mRNA or protein) (fraction of control) of 0.99. In the case of CAAAGCCATCACCCTAAA, the remaining target (mRNA or protein) (fraction of control) stood at 0.43. Still for that read-out and setting: in the case of CAAGTCATTCAAATAGTA it was at least 1; in that of ACTGCTTTGTATTGTTTA, 0.94. On the same count and under the same terms, in the case of AACCAGGTCGTAGTCACT it was 0.45. Sequence GCATTCGGTTCATTTCTT returned a remaining target (mRNA or protein) (fraction of control) of 0.58. On the same count and under the same terms, to GTTGAGTCGGGATGTAAT belongs at least 1; to CTCCTCTTCTGAATAACC, 0.79. On the same count and under the same terms, to TTTCCACAATCTCTTTAT belongs 0.92; to AGAACAACTTTGGTCAAG, 0.88; to TCATTTCTTCATCTTCAG, at least 1. The same measure, in the same setting: to TAGATAAGGGCTGTAATG belongs 0.87; to AAACTAAAGTCATAAATA, at least 1; to CCGGGCTGAGTCACCAAA, 0.31.

TAATAGTCTGTCATTCAG showed a remaining target (mRNA or protein) (fraction of control) of 0.95.
